Data as given in paper PMC7211195 (Investigational New Drugs, 2019).
Where two headings read alike, the source gives them in different places.

How the values were obtained:
[1] = Lapatinib pharmacokinetics and uptake in rat cerebrospinal fluid (CSF); assay type: in vivo, rats; settings: male, Wistar, po, 100 mg/kg, lapatinib p.o. 100 mg/kg alone, read-out: Clapatinib in CSF, single rat
[2] = Lapatinib pharmacokinetics in rat blood plasma (BP), HPLC-MS/MS, noncompartmental analysis; assay type: in vivo, rats; settings: for MRT last: read-out: MRT0-t
Method: This study was conducted on rats, which are a promising model to predict P-gp-based drug-drug interactions at the human BBB [15]. The animals were allowed to acclimate for one week before the beginning of the experiments. Adult male Wistar-strain rats (weight 470–525 g) were used in the study. The animals were maintained under standard breeding conditions with a 12/12 h light-dark cycle (lights on at 6.00 a.m., lights off at 6.00 p.m.) at constant room temperature (23 ± 2 °C), relative humidity (55 ± 10%) and ad libitum access to food and water. The experimental protocol for this study was reviewed and approved by the Local Ethics Committee. To obtain consistent data, the study was based on the required minimum number of animals and observation time. […] Three rats were used at each time point (n = 3). In total, the research was conducted on 66 animals (n = 33 in the experimental group and n = 33 in the control group).
Elacridar was freshly dissolved in a vehicle at an initial concentration of 20 mg/mL. […] A volume of 80 μL of blood was collected from each rat by cutting off a piece of its tail. The blood samples were collected into heparinized test tubes at the following time points: […], and they were immediately centrifuged at 2880 g for 10 min at 4 °C. The anaesthetized rats (anaesthetized by intramuscular administration of 50 mg/kg ketamine and 10 mg/kg xylazine) were prepared for cisterna magna puncture. The hair over the puncture was removed and the skin was disinfected with alcohol. The animals were placed in a recumbent position with an elevated rear part of the body. The animals’ heads were slightly flexed and immobilized with the operator’s left hand. The space between the occiput rostrally and the atlas (C1) of the spinal column caudally was gently palpated with the left thumb. A 0.7 × 20 G needle with polyethylene tubing (Terumo Poland, Warsaw, Poland) was gently inserted at an approximate angle of 80–90° through the skin with the operator’s right hand into the midsagittal region. The moment that dura mater perforation was perceptible, a small amount of CSF was found in the needle tubing. To sample additional CSF, a 1 mL insulin syringe (Becton Dickinson, Warsaw, Poland) was used to collect 80–120 μL of CSF by very gentle aspiration. Only clear CSF was collected for further analysis. […] The animals’ brains were immediately dissected, washed in 0.9% NaCl and divided along the longitudinal axis. One of the brain hemispheres was again rinsed three times with 5 mL of 0.9% NaCl, weighed and homogenized with 0.9% NaCl (4 mL per 1 g of BT) in an Ultra-Turrax homogenizer (Witko, Łódź, Poland). The homogenate was then centrifuged at 4500 g for 10 min. All samples of the rat BP, CSF, and BT homogenate supernatant were stored at −80 °C until analysis.
The chromatographic analysis was conducted using a 1260 Infinity system (Agilent Technologies, Santa Clara, USA) equipped with a Kinetex® C18 column (50 × 4.6 mm, 2.6 μm, Phenomenex, Torrance, USA), which was maintained at 35 °C. The mobile phase consisted of 0.1% formic acid (v/v) in water with 5 mM ammonium formate (solvent A) and acetonitrile with 10% phase A (v/v, solvent B). The analyte and internal standard (IS, erlotinib) were eluted using a gradient run of 10 min as follows: 95% A at 0–2 min; 95%–5% A at 2–4 min; 5% A at 4–5 min; 5%–95% A at 5–6 min; 95% A at 6–10 min. The flow rate and injection volume were set at 0.7 mL/min and 10 μL, respectively. The needle was washed for 30 s in a mixture of acetonitrile, methanol, isopropanol, water, and formic acid (50:20:15:15:0.25, v/v/v/v/v).

[3] = blood plasma, lapatinib 100 mg/kg oral + 5 mg/kg elacridar (IE+L)
[4] = male, Wistar, rat, plasma, oral, lapatinib 100 mg/kg + elacridar, read-out: Clapatinib in BP, S
[5] = male, Wistar, rat, plasma, oral, lapatinib 100 mg/kg + elacridar, read-out: Clapatinib in BP, single rat
[6] = male, Wistar, rat, plasma, po, 100 mg/kg, blood plasma, lapatinib 100 mg/kg oral + 5 mg/kg elacridar (IE+L)
[7] = male, Wistar, rat, plasma, po, 100 mg/kg, blood plasma, lapatinib 100 mg/kg oral alone (IIL)
[8] = male, Wistar, rat, plasma, po, 100 mg/kg, lapatinib p.o. 100 mg/kg alone, read-out: Clapatinib in BP, S (medium value)
[9] = male, Wistar, rat, plasma, po, 100 mg/kg, lapatinib p.o. 100 mg/kg alone, read-out: Clapatinib in BP, single rat

## CS(=O)(=O)CCNCc1ccc(-c2ccc3ncnc(Nc4ccc(OCc5cccc(F)c5)c(Cl)c4)c3c2)o1 [lapatinib, N-{3-Chloro-4-[(3-fluorobenzyl)oxy]phenyl}-6-[5-({[2-(methylsulfonyl)ethyl]amino}methyl)-2-furyl]-4-quinazolinamine]
[1]
  concentration at 0.25 h: 4.47 ng/mL
[2]; BP, IE+L vs IIL group
  plasma AUC0-t higher in IE+L than in IIL: 78.7%
  plasma AUC0-∞ higher in IE+L than in IIL: 155.6%
  plasma Cmax greater in IE+L than in IIL: 6.3%
  t0.5 prolongation when coadministered with elacridar: 5.2 fold
[2]; [3]
  Tmax: 2.50 ± 0.71 h
  t0.5: 28.77 ± 6.00 h
[2]; each matrix sample (BP, CSF, BT), IIL group
  concentration of lapatinib after 24 h: undetectable
[2]; [4]
  concentration at 0.25 h: 780 ng/mL
  concentration at 0.5 h: 1520 ng/mL
  concentration at 1 h: 1980 ng/mL
  concentration at 2 h: 3070 ng/mL
  concentration at 3 h: 2460 ng/mL
  concentration at 4 h: 1310 ng/mL
  concentration at 6 h: 1340 ng/mL
  concentration at 8 h: 1780 ng/mL
  concentration at 12 h: 2300 ng/mL
  concentration at 24 h: 1230 ng/mL
[2]; [5]
  concentration at 0.25 h: 700 ng/mL
  concentration at 0.5 h: 1680 ng/mL
  concentration at 1 h: 2050 ng/mL
  concentration at 2 h: 2100 ng/mL
  concentration at 3 h: 2040 ng/mL
  concentration at 4 h: 1580 ng/mL
  concentration at 6 h: 1360 ng/mL
  concentration at 12 h: 2280 ng/mL
  concentration at 24 h: 1300 ng/mL
[2]; male, Wistar, rat, plasma, po, 100 mg/kg
  Cmax: 3260 ± 810 ng/mL
[2]; [6]
  AUC(0-inf): 95100 ng·h/mL
  AUC(0-t): 43600 ng·h/mL
  k el: 5.56e-06 s⁻¹
  MRT last: 11.1 ± 0.5 h
[2]; [7]
  AUC(0-inf): 37200 ng·h/mL
  AUC(0-t): 24400 ng·h/mL
  k el: 3.61e-05 s⁻¹
  MRT last: 5.7 ± 0.43 h
[2]; [8]
  concentration at 0.25 h: 650 ng/mL
  concentration at 0.5 h: 1330 ng/mL
  concentration at 1 h: 2050 ng/mL
  concentration at 2 h: 2210 ng/mL
  concentration at 3 h: 2380 ng/mL
  concentration at 4 h: 3260 ng/mL
  concentration at 6 h: 1940 ng/mL
  concentration at 8 h: 1940 ng/mL
  concentration at 12 h: 1500 ng/mL
[2]; [9]
  concentration at 0.25 h: 530 ng/mL
  concentration at 0.5 h: 1210 ng/mL
  concentration at 1 h: 1830 ng/mL
  concentration at 2 h: 1950 ng/mL
  concentration at 4 h: 3830 ng/mL
  concentration at 6 h: 1560 ng/mL
  concentration at 8 h: 2130 ng/mL
[2]; male, Wistar, rat, plasma, po, 100 mg/kg, read-out: tmax
  Tmax: 4 h
